Numbering of substitutions follows the chain as printed.
Assays:
KDM4A N198A mutant = target: T1, KDM4A N198A mutant (Homo sapiens, UniProt O75164, N198A); experiment: MALDI demethylase assay, H3K9me3 substrate peptide, N198A mutant; format: biochemical
T1 sequence (O75164 1-1064 N198A): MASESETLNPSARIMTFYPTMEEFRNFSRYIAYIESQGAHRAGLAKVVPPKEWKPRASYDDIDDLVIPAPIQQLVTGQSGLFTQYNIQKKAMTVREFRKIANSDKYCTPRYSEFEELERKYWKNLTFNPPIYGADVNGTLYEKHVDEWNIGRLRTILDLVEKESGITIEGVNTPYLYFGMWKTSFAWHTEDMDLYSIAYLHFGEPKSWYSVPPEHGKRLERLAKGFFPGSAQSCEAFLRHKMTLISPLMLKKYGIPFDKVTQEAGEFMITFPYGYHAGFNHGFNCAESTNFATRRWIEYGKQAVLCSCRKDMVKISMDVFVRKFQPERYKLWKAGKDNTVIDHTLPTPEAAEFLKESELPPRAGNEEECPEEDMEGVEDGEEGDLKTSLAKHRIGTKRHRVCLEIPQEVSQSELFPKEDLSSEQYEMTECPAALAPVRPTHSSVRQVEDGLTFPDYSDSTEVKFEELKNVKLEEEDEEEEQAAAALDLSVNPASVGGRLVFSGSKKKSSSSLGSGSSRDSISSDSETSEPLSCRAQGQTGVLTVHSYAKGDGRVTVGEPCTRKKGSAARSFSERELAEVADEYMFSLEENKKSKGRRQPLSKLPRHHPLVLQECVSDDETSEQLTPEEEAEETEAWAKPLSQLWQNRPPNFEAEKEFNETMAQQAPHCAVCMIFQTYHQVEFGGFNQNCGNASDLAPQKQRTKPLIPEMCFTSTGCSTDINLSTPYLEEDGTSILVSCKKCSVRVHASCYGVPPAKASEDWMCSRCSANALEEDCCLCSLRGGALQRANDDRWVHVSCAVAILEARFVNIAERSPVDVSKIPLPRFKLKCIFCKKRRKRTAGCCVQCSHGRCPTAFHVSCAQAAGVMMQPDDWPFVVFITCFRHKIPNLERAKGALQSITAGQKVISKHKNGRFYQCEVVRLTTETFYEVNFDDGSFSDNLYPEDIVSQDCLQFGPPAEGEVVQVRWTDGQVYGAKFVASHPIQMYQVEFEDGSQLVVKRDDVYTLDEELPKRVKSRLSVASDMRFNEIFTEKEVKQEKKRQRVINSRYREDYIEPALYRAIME

KDM4A N198G mutant = target: T2, KDM4A N198G mutant (Homo sapiens, UniProt O75164, N198G); experiment: MALDI demethylase assay, H3K9me3 substrate peptide, N198G mutant; format: biochemical
T2 sequence (O75164 1-1064 N198G): T1 sequence (O75164 1-1064 N198A) with A198G

2KG-dependent enzymes = conditions: broad-spectrum inhibitors of 2KG-dependent enzymes; cited from earlier work
[1] = scaffold test under the optimized assay conditions (50 μM 2KG), Figure S7
[2] = 100 μM compound, 50 μM 2KG, MALDI-MS

inhibition of demethylase activity (KDM4A N198A mutant; [1])	inhibition of demethylase activity (KDM4A N198G mutant; [1])	inhibition of demethylase activity (KDM4A N198A mutant; [2])	inhibition of demethylase activity (KDM4A N198G mutant; [2])	SMILES	IC50 (2KG-dependent enzymes)
inhibited	inhibited	–	–	O=C(O)c1ccc(O)c2ncccc12 [IOX1, 5-carboxy-8-hydroxyquinone]	micromolar range
inhibited	inhibited	significantly inhibited	significantly inhibited	O=C(O)CNC(=O)C(=O)O [compound 2, N-oxalylglycine]	micromolar range
